Assay results taken from the supplement of paper PMC10307832.

Assays:
Test in all cases: relative viability (nuclei count vs DMSO), 5 days (fraction); higher = more cells survive
[1] = compound: CC(C)(C)c1nc(-c2cccc(NS(=O)(=O)c3c(F)cccc3F)c2F)c(-c2ccnc(N)n2)s1 [Dabrafenib] + O=C(CCCCCCC(=O)Nc1ccccc1)NO [Vorinostat] (partner 1 µM)
Summary of the method: (§1)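 Values are medians from duplicate plates. Each reflects relative viability, defined as the nuclei count of treated wells over that of vehicle wells. Lung cancer cell lines in 1536-well plates were pin-tool dosed one day after seeding with one drug alone or with a fixed anchor-drug dose plus five library-drug doses (not always all listed) in √10 steps, then fixed, stained and imaged at 4× after 5 days.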

[2] = compound: NC(=O)c1ccc(N(C(N)=O)c2c(F)cccc2F)nc1-c1ccc(F)cc1F [VX-702] + O=C(c1cc(Cc2n[nH]c(=O)c3ccccc23)ccc1F)N1CCN(C(=O)C2CC2)CC1 [Olaparib] (partner 8 µM)
Summary of the method: as §1

[3] = compound: NC(=O)c1ccc(N(C(N)=O)c2c(F)cccc2F)nc1-c1ccc(F)cc1F [VX-702] + CCNC(=O)c1noc(-c2cc(C(C)C)c(O)cc2O)c1-c1ccc(CN2CCOCC2)cc1 [Luminespib] (partner 0.01 µM)
Summary of the method: as §1

[4] = compound: NC(=O)c1ccc(N(C(N)=O)c2c(F)cccc2F)nc1-c1ccc(F)cc1F [VX-702] + Cc1cc(Nc2cc(N3CCN(C)CC3)nc(Sc3ccc(NC(=O)C4CC4)cc3)n2)n[nH]1 [Tozasertib] (partner 0.1 µM)
Summary of the method: as §1

Cell Line	relative viability ([1]; first compound 0.009487 µM)	relative viability ([1]; first compound 0.03 µM)	relative viability ([1]; first compound 0.09487 µM)	relative viability ([1]; first compound 0.3 µM)	relative viability ([2]; first compound 0.02 µM)	relative viability ([2]; first compound 0.2 µM)	relative viability ([2]; first compound 0.6325 µM)	relative viability ([2]; first compound 2 µM)	relative viability ([1]; first compound 0.003 µM)	relative viability ([3]; first compound 0.02 µM)	relative viability ([3]; first compound 0.2 µM)	relative viability ([3]; first compound 0.6325 µM)	relative viability ([3]; first compound 2 µM)	relative viability ([4]; first compound 0.02 µM)	relative viability ([4]; first compound 0.2 µM)	relative viability ([4]; first compound 0.6325 µM)	relative viability ([4]; first compound 2 µM)
IA-LM	0.957	0.983	0.829	1.07	0.833	0.841	0.994	0.937									
LC-2-ad	0.736	0.73	0.613	0.686	0.724	0.678	0.799	0.776	0.74	0.979	1.01	1.01	1.36	0.375	0.4	0.465	0.497
LCLC-97TM1	0.928	0.695	0.283	0.596	0.428	0.307	0.502	0.69		0.613	0.768	0.747	0.743	0.175	0.183	0.301	0.252
LCLC-103H	0.772	0.576	0.765	0.816	0.788	0.757	0.795	0.817	0.627	0.975	0.888	1	0.986	0.405	0.355	0.456	0.541
LK-2	0.228	0.268	0.265	0.34	0.68	0.601	0.555	0.751	0.333	0.199	0.175	0.175	0.178	0.153	0.173	0.157	0.168
LOU-NH91	0.941	0.964	0.941	1.07	0.888	0.891	0.911	0.881		0.355	0.3	0.346	0.292	0.75	0.657	0.677	0.628
LU99A	0.492	0.457	0.406	0.391	0.265	0.233	0.255	0.228	0.549	0.27	0.204	0.267	0.189	0.315	0.25	0.257	0.263
LXF-289	0.779	0.759	0.674	0.789	1.08	1.07	1.06	1.1	0.73	0.689	0.732	0.659	0.789	0.208	0.188	0.214	0.175
NCI-H23	0.548	0.592	0.354	0.409	0.372	0.254	0.329	0.402		0.196	0.189	0.274	0.215	0.446	0.334	0.37	0.486
NCI-H322M	0.962		0.822	0.74	1.26	0.839	0.806	0.929		0.856	0.917	0.759	0.88	0.486	0.506	0.496	0.508
NCI-H358	0.695	0.741	0.689	0.72	0.628	0.526	0.561	0.634	0.86	0.245	0.416	0.583	0.4	0.0998	0.0877	0.0872	0.115
NCI-H441	0.725	0.994	0.804	0.839	0.567	0.553	0.572	0.661		0.368	0.326	0.271	0.411	0.722	0.546	0.478	0.641
NCI-H460	0.712	0.662	0.641	0.639	0.428	0.438	0.548	0.26	0.744	0.0333	0.0359	0.0358	0.0313	0.665	0.54	0.614	0.159
NCI-H520	0.753	0.63	0.823	0.74	0.358	0.305	0.379	0.289	0.82	0.189	0.245	0.221	0.239	0.443	0.385	0.434	0.55
NCI-H522	1.06	0.864	0.815	0.93	0.754	0.678	0.667	0.619		0.868	1.11	1.26	1.2	0.522	0.551	0.502	0.588
NCI-H596	0.723	0.416	0.725	0.515	0.66	0.714	0.898	0.685		1.05	1.1	1.01	1.11	0.8	0.859	0.87	1.09
NCI-H647	0.529	0.445	0.401	0.524	0.752	0.509	0.427	0.744	0.814	0.216	0.478	0.143	0.17	0.323	0.248	0.208	0.436
NCI-H1299					0.982	0.924	0.937	0.862									
NCI-H1563										0.528	0.506	0.509	0.479				
NCI-H1623										0.469	0.496	0.477	0.465	0.444	0.415	0.437	0.426
NCI-H1648	0.429		0.499	0.421	0.817	0.851	0.689	0.781	0.459					0.419	0.42	0.397	0.426
NCI-H1703					0.415	0.361	0.315	0.47									
NCI-H1792					0.396	0.434	0.356	0.444		0.331	0.355	0.376	0.523				
